# Measurements: PubChem BioAssay AID179 (DTP/NCI, 2004)
# Several values for one entry are separate records, joined by “and”; a condition that tells them apart may be missing. Identical values can stand only once. Activity calls are given as the source filed them.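 The calls were made as follows: active = compounds giving half or more protection of infected cells from virus-caused growth loss, again on retest; inactive = the rest.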 Where a SMILES comes first, the peptide text is derived from it. [ ]: non-standard residue; d: D form. The star is where a group is joined. ξ: configuration not given here. ξD = NC(CC(=O)O)C(=O)O; Ac3c = NC1(C(=O)O)CC1; Boc = CC(C)(C)OC(=O)*; OBn = c1ccc(CO*)cc1
# Tested on: CEM cells HIV-1 protection, formazan growth assay
# Test: NCI AIDS Antiviral Assay
# Settings: for IC50: measured here: growth of uninfected CEM cells
# How it was run: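 Category rules: moderately active means at least 50% protection on retest, and confirmed active means 100% protection reproducibly. The underlying data came from a formazan growth assay in HIV-1-infected CEM cells.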
Compound,EC50 [µM],IC50,outcome
COc1ccc2ccccc2c1CN1CCOCCOCCN(Cc2c(OC)ccc3ccccc23)CCOCCOCC1,> 8.71,4.9 µM,–
CCNc1nnc(-c2nsc3ccccc23)s1,> 20,> 20 µM,–
COC(=O)C1(NC(=O)C(CC(=O)OCc2ccccc2)NC(=O)OC(C)(C)C)CC1 (stereo not given) (Boc-[ξD](OBn)-[Ac3c]-OMe),> 200,> 200 µM,–
COCO[C@@H]1C(=O)N(c2ccccc2)[C@@H]1c1ccccc1,> 178,> 178 µM,–
Cc1ccc(S(=O)(=O)Nc2ccccc2NS(=O)(=O)c2ccc(C)cc2)cc1,> 200,30.2 µM,–
CCCCC/C=C\CCC/C=C\CCCCCCOP(=O)(O)OCCC=C(c1cc(Cl)c(O)c(C(=O)O)c1)c1cc(Cl)c(O)c(C(=O)O)c1,> 126,83.2 µM,–
c1ccc(CNc2ccc3[nH]c4cnccc4c3c2)cc1,> 251,36.3 µM,–
CCCCCCNCCc1cnc[nH]1,> 200,> 200 µM,–
O=[N+]([O-])c1cccc(-c2csc(NNC3=NC/C(=C/c4ccc5c(c4)OCO5)S3)n2)c1,> 200,117 µM,–
CC1(C)C2C=CC1C(=O)CC2 (stereo not given),> 389,> 389 µM,–
NS(=O)(=O)c1ccc(N2C(=O)C(=O)N(c3ccccc3)C2=S)cc1,> 200,19.5 µM,–
O=C(NC(O)C(Cl)(Cl)Cl)NC(O)C(Cl)(Cl)Cl (stereo not given),> 200,> 200 µM,–
Cc1ccc(C)c2c1C(=O)N(c1ccccc1)C2=O,> 200,> 200 µM,–
NC(=O)C(=CN1C(=O)/C(=C\c2cccc(O)c2)SC1=S)C(N)=O,> 200,107 µM,–
Cc1ccc(S(=O)(=O)N/N=C/C2(c3ccccc3)c3ccccc3-c3ccccc32)cc1,> 200,11.2 µM,–
NNC(=O)CCC(=O)NC1C2CC3CC(C2)CC1C3 (stereo not given),> 676,> 676 µM,–
O=C1[C@@H](c2ccc(Cl)cc2)[C@H]2CC=C[C@H]2N1O,> 355,61.7 µM,–
O=S(=O)(O)CO,> 200,151 µM,–

Compound,EC50 [µM],IC50,outcome
C/C(=N/NC(=S)Nc1ccc([N+](=O)[O-])cc1)c1cccc(/C(C)=N\NC(=S)Nc2ccc([N+](=O)[O-])cc2)n1,> 200,0.479 µM,–
O=C(N/C(=C\c1ccccc1Cl)c1nc2ccccc2[nH]1)c1ccccc1,–,–,inactive
O=c1[nH]c(=O)n(C2CC(O)C(CO)O2)c2nc3ccc4cc5ccccc5cc4c3nc12 (stereo not given),> 50.1,39.8 µM,–
Nc1ncnc2c1ncn2C1OC(CSC(F)(F)F)C(O)C1O (stereo not given),> 708,112 µM,–
COc1cc(C)cc2c1OC(c1ccccc1)CC2=O (stereo not given),> 200,52.5 µM,–
CCCCn1cnc2c(SSc3ncnc4c3ncn4CCCC)ncnc21,> 200,10.7 µM,–
Cc1c2c(c(C)c3c1C(=O)c1cc4c(cc1C3=O)OCO4)OCO2,> 200,> 200 µM,–
COC(=O)c1c(C#N)[nH]c(-c2ccsc2)c1C(=O)OC,> 200,52.5 µM,–
CCOC(=O)C12CCSC1C1(C#N)C(C#N)=CC2(N=P(c2ccccc2)(c2ccccc2)c2ccccc2)n2c(=O)n(-c3ccccc3)c(=O)n21 (stereo not given),> 26.3,> 26.3 µM,–
NC1CCCC2CCC(N)C12 (stereo not given),> 200,9.55 µM,–
O=C(NCCCCN1CC2CCCC2C1)C(C1CCCCC1)C1CCCCC1 (stereo not given),> 200,10.7 µM,–
O=c1[nH]c(N/N=C\C(O)C(O)C(O)CO)nc2ccccc12 (stereo not given),> 200,> 200 µM and 97.7 µM,–
COc1cc(/C=C/C(=O)/C=C/c2cc(OC)c(OC)c(OC)c2)cc(OC)c1OC,> 200,0.0977 µM,–
O=C(O)c1ccccc1CC1Cc2ccc3c(c2C1=O)CCC3 (stereo not given),> 200,112 µM,–
CN(C)c1ccc(/C=C2/NC(=S)NC2=O)cc1,> 200,20 µM,–
COc1cc(Cc2nnc(N)[nH]c2=O)cc(OC)c1OC,> 17.8,> 17.8 µM,–
[O-]c1c2c(nn1-c1ccc(F)cc1)c1ccccc1c[n+]2Cc1ccccc1,–,–,inactive
CC1(C)CNC(=S)S1,> 339,> 339 µM,–
